The values that follow come from patent publication US12637473B2, “MDM2 protein degraders” (THE REGENTS OF THE UNIVERSITY OF MICHIGAN, priority 2016, dated 2026).

One assay concerns MV4-11 cell line. In words: CellTiter-Glo Luminescent Cell Viability Assay, cell growth inhibition. Type of assay: cell-based. The note with it: Homo sapiens, 96 h, 4 days. The protocol: (§1) Cell growth inhibitory activity of representative MDM2 protein degraders was determined using CellTiter-Glo® Luminescent Cell Viability Assay. Cells were seeded in 384-well white opaque cell culture plates at a density of 2,000 cells/well with serially diluted compounds and incubated at 37° C. in an atmosphere of 95% air and 5% CO2 for 4 days. Cell viability was determined using the CellTiter-Glo® Luminescent Cell Viability Assay Kit (Promega, Madison, WI) according to the manufacture's instruction. Briefly, a volume of CellTiter-Glo® Reagent equal to the volume of cell culture medium was added to each well, and then the plates were incubated at room temperature for 10-20 minutes. The luminescent signal was measured using a Tecan Infinite M1000 multimode microplate reader (Tecan, Morrisville, NC). The half maximal inhibitory concentration (IC50) was calculated using the GraphPad Prism 5 software (GraphPad Software, La Jolla, CA). Cpd. […] The structure of Cpd.
(ATP-based viability assays read luminescence as a measure of living cells.)

The subject of a further assay is RS4; 11 cell line. The description is as above. The assay is classed as cell-based. Conditions: Homo sapiens, 96 h, 4 days. The protocol: as §1

The term IC50 denotes the concentration that inhibits the measured activity by half. `O=C(COc1cccc2c1C(=O)N(C1CCC(=O)NC1=O)C2=O)NCCCCNC(=O)c1ccc(NC(=O)[C@@H]2NC3(CCCCC3)[C@@]3(C(=O)Nc4cc(Cl)ccc43)[C@H]2c2cccc(Cl)c2F)cc1` (stereo partly drawn) [Cpd. No. 1, (3′R,4'S,5′R)-6″-chloro-4′-(3-chloro-2-fluorophenyl)-N-(4-((4-(2-((2-(2,6-dioxopiperidin-3-yl)-1,3-dioxoisoindolin-4-yl)oxy)acetamido)butyl)carbamoyl)phenyl)-2″-oxodispiro[cyclohexane-1,2′-pyrrolidine-3′,3″-indoline]-5′-carboxamide]: the IC50 amounted to 416 nM in the assay on MV4-11 cell line and 233 nM in the assay with RS4; 11 cell line.
The corresponding values for `O=C(COc1cccc2c1C(=O)N(C1CCC(=O)NC1=O)C2=O)NCCCOCCOCCOCCCNC(=O)c1ccc(NC(=O)[C@@H]2NC3(CCCCC3)[C@@]3(C(=O)Nc4cc(Cl)ccc43)[C@H]2c2cccc(Cl)c2F)cc1` (stereo partly drawn) [Cpd. No. 2, (3′R,4'S,5′R)-6″-chloro-4′-(3-chloro-2-fluorophenyl)-N-(4-((1-((2-(2,6-dioxopiperidin-3-yl)-1,3-dioxoisoindolin-4-yl)oxy)-2-oxo-7,10,13-trioxa-3-azahexadecan-16-yl)carbamoyl)phenyl)-2″-oxodispiro[cyclohexane-1,2′-pyrrolidine-3′,3″-indoline]-5′-carboxamide] are 157 nM and 85 nM.
The matching figures for `O=C(CNc1cccc2c1C(=O)N(C1CCC(=O)NC1=O)C2=O)NCCCOCCOCCOCCCNC(=O)c1ccc(NC(=O)[C@@H]2NC3(CCCCC3)[C@@]3(C(=O)Nc4cc(Cl)ccc43)[C@H]2c2cccc(Cl)c2F)cc1` (stereo partly drawn) [Cpd. No. 3, (3′R,4'S,5′R)-6″-chloro-4′-(3-chloro-2-fluorophenyl)-N-(4-((1-((2-(2,6-dioxopiperidin-3-yl)-1,3-dioxoisoindolin-4-yl)amino)-2-oxo-7,10,13-trioxa-3-azahexadecan-16-yl)carbamoyl)phenyl)-2″-oxodispiro[cyclohexane-1,2′-pyrrolidine-3′,3″-indoline]-5′-carboxamide]: 5.6 nM and 22 nM.
As for `O=C1CCC(N2C(=O)c3cccc(OCCOCCOCCOCCNC(=O)c4ccc(NC(=O)[C@@H]5NC6(CCCCC6)[C@@]6(C(=O)Nc7cc(Cl)ccc76)[C@H]5c5cccc(Cl)c5F)cc4)c3C2=O)C(=O)N1` (stereo partly drawn) [Cpd. No. 4, (3′R,4'S,5′R)-6″-chloro-4′-(3-chloro-2-fluorophenyl)-N-(4-((2-(2-(2-(2-((2-(2,6-dioxopiperidin-3-yl)-1,3-dioxoisoindolin-4-yl)oxy)ethoxy)ethoxy)ethoxy)ethyl)carbamoyl)phenyl)-2″-oxodispiro[cyclohexane-1,2′-pyrrolidine-3′,3″-indoline]-5′-carboxamide], the IC50 turned out to be 6 nM in the assay with MV4-11 cell line and 14 nM in the assay with RS4; 11 cell line.
Regarding `O=C1CCC(N2C(=O)c3cccc(NCCCOCCOCCOCCCNC4CCN(C(=O)c5ccc(NC(=O)[C@@H]6NC7(CCCCC7)[C@@]7(C(=O)Nc8cc(Cl)ccc87)[C@H]6c6cccc(Cl)c6F)cc5)CC4)c3C2=O)C(=O)N1` (stereo partly drawn) [Cpd. No. 5, (3′R,4'S,5′R)-6″-chloro-4′-(3-chloro-2-fluorophenyl)-N-(4-(4-((3-(2-(2-(3-((2-(2,6-dioxopiperidin-3-yl)-1,3-dioxoisoindolin-4-yl)amino)propoxy)ethoxy)ethoxy)propyl)amino)piperidine-1-carbonyl)phenyl)-2″-oxodispiro[cyclohexane-1,2′-pyrrolidine-3′,3″-indoline]-5′-carboxamide], the half-maximal inhibitory concentration (IC50) with MV4-11 cell line was determined as 15 nM; in the assay with RS4; 11 cell line, 2.2 nM.
The corresponding values for `O=C1CCC(N2C(=O)c3cccc(NCCOCCOCCOCCOc4ccc(NC(=O)c5ccc(NC(=O)[C@@H]6NC7(CCCCC7)[C@@]7(C(=O)Nc8cc(Cl)ccc87)[C@H]6c6cccc(Cl)c6F)cc5)cc4)c3C2=O)C(=O)N1` (stereo partly drawn) [Cpd. No. 6, (3′R,4'S,5′R)-6″-chloro-4′-(3-chloro-2-fluorophenyl)-N-(4-((4-(2-(2-(2-(2-((2-(2,6-dioxopiperidin-3-yl)-1,3-dioxoisoindolin-4-yl)amino)ethoxy)ethoxy)ethoxy)ethoxy)phenyl)carbamoyl)phenyl)-2″-oxodispiro[cyclohexane-1,2′-pyrrolidine-3′,3″-indoline]-5′-carboxamide] are 37 nM and 38 nM.
The matching figures for `O=C1CCC(N2C(=O)c3cccc(NCCNC(=O)c4ccc(NC(=O)[C@@H]5NC6(CCCCC6)[C@@]6(C(=O)Nc7cc(Cl)ccc76)[C@H]5c5cccc(Cl)c5F)cc4)c3C2=O)C(=O)N1` (stereo partly drawn) [Cpd. No. 7, (3′R,4'S,5′R)-6″-chloro-4′-(3-chloro-2-fluorophenyl)-N-(4-((2-((2-(2,6-dioxopiperidin-3-yl)-1,3-dioxoisoindolin-4-yl)amino)ethyl)carbamoyl)phenyl)-2″-oxodispiro[cyclohexane-1,2′-pyrrolidine-3′,3″-indoline]-5′-carboxamide]: 20 nM and 15 nM.
`O=C1CCC(N2C(=O)c3cccc(NCCCCNC(=O)c4ccc(NC(=O)[C@@H]5NC6(CCCCC6)[C@@]6(C(=O)Nc7cc(Cl)ccc76)[C@H]5c5cccc(Cl)c5F)cc4)c3C2=O)C(=O)N1` (stereo partly drawn) [Cpd. No. 9, (3′R,4'S,5′R)-6″-chloro-4′-(3-chloro-2-fluorophenyl)-N-(4-((4-((2-(2,6-dioxopiperidin-3-yl)-1,3-dioxoisoindolin-4-yl)amino)butyl)carbamoyl)phenyl)-2″-oxodispiro[cyclohexane-1,2′-pyrrolidine-3′,3″-indoline]-5′-carboxamide]: the results for the 50% inhibitory concentration (IC50) with MV4-11 cell line and in the assay on RS4; 11 cell line were 163 nM and 10 nM, respectively.
Consider `O=C1CCC(N2C(=O)c3cccc(NCCCCCCNC(=O)c4ccc(NC(=O)[C@@H]5NC6(CCCCC6)[C@@]6(C(=O)Nc7cc(Cl)ccc76)[C@H]5c5cccc(Cl)c5F)cc4)c3C2=O)C(=O)N1` (stereo partly drawn) [Cpd. No. 11, (3′R,4'S,5′R)-6″-chloro-4′-(3-chloro-2-fluorophenyl)-N-(4-((6-((2-(2,6-dioxopiperidin-3-yl)-1,3-dioxoisoindolin-4-yl)amino)hexyl)carbamoyl)phenyl)-2″-oxodispiro[cyclohexane-1,2′-pyrrolidine-3′,3″-indoline]-5′-carboxamide], for which the 50% inhibitory concentration (IC50) with MV4-11 cell line was 42 nM; with RS4; 11 cell line it was 30 nM.
The corresponding values for `O=C1CCC(N2C(=O)c3cccc(NCCOCCNC(=O)c4ccc(NC(=O)[C@@H]5NC6(CCCCC6)[C@@]6(C(=O)Nc7cc(Cl)ccc76)[C@H]5c5cccc(Cl)c5F)cc4)c3C2=O)C(=O)N1` (stereo partly drawn) [Cpd. No. 13, (3′R,4'S,5′R)-6″-chloro-4′-(3-chloro-2-fluorophenyl)-N-(4-((2-(2-((2-(2,6-dioxopiperidin-3-yl)-1,3-dioxoisoindolin-4-yl)amino)ethoxy)ethyl)carbamoyl)phenyl)-2″-oxodispiro[cyclohexane-1,2′-pyrrolidine-3′,3″-indoline]-5′-carboxamide] are 5.2 nM and 7.4 nM.
`COc1cc(C(=O)NCCCOCCOCCOCCCNc2cccc3c2C(=O)N(C2CCC(=O)NC2=O)C3=O)ccc1NC(=O)[C@@H]1N[C@@H](CC(C)(C)C)[C@](C#N)(c2ccc(Cl)cc2F)[C@H]1c1cccc(Cl)c1F` (stereo partly drawn) [Cpd. No. 58, (2R,3S,4R,5S)-3-(3-chloro-2-fluorophenyl)-4-(4-chloro-2-fluorophenyl)-4-cyano-N-(4-((3-(2-(2-(3-((2-(2,6-dioxopiperidin-3-yl)-1,3-dioxoisoindolin-4-yl)amino)propoxy)ethoxy)ethoxy)propyl)carbamoyl)-2-methoxyphenyl)-5-neopentylpyrrolidine-2-carboxamide] had an IC50 with RS4; 11 cell line of 14 nM.
In the assay with RS4; 11 cell line, `CC(C)[C@@H](CS(=O)(=O)C(C)C)N1C(=O)[C@@](C)(CC(=O)NCCOCCOCCNc2cccc3c2C(=O)N(C2CCC(=O)NC2=O)C3=O)C[C@H](c2cccc(Cl)c2)[C@H]1c1ccc(Cl)cc1` (stereo partly drawn) [Cpd. No. 60, 2-((3R,5R,6S)-5-(3-chlorophenyl)-6-(4-chlorophenyl)-1-((S)-1-(isopropylsulfonyl)-3-methylbutan-2-yl)-3-methyl-2-oxopiperidin-3-yl)-N-(2-(2-(2-((2-(2,6-dioxopiperidin-3-yl)-1,3-dioxoisoindolin-4-yl)amino)ethoxy)ethoxy)ethyl)acetamide] displayed an IC50 of 404 nM.
With `CC(C)[C@@H](CS(=O)(=O)C(C)C)N1C(=O)[C@@](C)(CC(=O)NCCCOCCOCCOCCCNc2cccc3c2C(=O)N(C2CCC(=O)NC2=O)C3=O)C[C@H](c2cccc(Cl)c2)[C@H]1c1ccc(Cl)cc1` (stereo partly drawn) [Cpd. No. 61, 2-((3R,5R,6S)-5-(3-chlorophenyl)-6-(4-chlorophenyl)-1-((S)-1-(isopropylsulfonyl)-3-methylbutan-2-yl)-3-methyl-2-oxopiperidin-3-yl)-N-(3-(2-(2-(3-((2-(2,6-dioxopiperidin-3-yl)-1,3-dioxoisoindolin-4-yl)amino)propoxy)ethoxy)ethoxy)propyl)acetamide], the IC50 with RS4; 11 cell line worked out at 98 nM.
On the same count and under the same terms, with `Cc1ncsc1-c1ccc(CNC(=O)[C@@H]2C[C@@H](O)CN2C(=O)[C@@H](NC(=O)CCCCNC(=O)c2ccc(NC(=O)[C@@H]3NC4(CCCCC4)[C@@]4(C(=O)Nc5cc(Cl)ccc54)[C@H]3c3cccc(Cl)c3F)cc2)C(C)(C)C)cc1` [compound 41] the figure was 991 nM.
Still for that read-out and setting: with `Cc1ncsc1-c1ccc(CNC(=O)[C@@H]2C[C@@H](O)CN2C(=O)[C@@H](NC(=O)CCOCCOCCNC(=O)c2ccc(NC(=O)[C@@H]3NC4(CCCCC4)[C@@]4(C(=O)Nc5cc(Cl)ccc54)[C@H]3c3cccc(Cl)c3F)cc2)C(C)(C)C)cc1` [compound 42] the figure was 677 nM.
Still for that read-out and setting: with `Cc1ncsc1-c1ccc(CNC(=O)[C@@H]2C[C@@H](O)CN2C(=O)[C@@H](NC(=O)CCOCCOCCOCCNC(=O)c2ccc(NC(=O)[C@@H]3NC4(CCCCC4)[C@@]4(C(=O)Nc5cc(Cl)ccc54)[C@H]3c3cccc(Cl)c3F)cc2)C(C)(C)C)cc1` [compound 43] the figure was 445 nM.
